Results on ten compounds are retold here after patent publication US8575119B2, “2′-chloroacetylenyl substituted nucleoside derivatives” (Enanta Pharmaceuticals, Inc., priority 2011, dated 2013).

pEC50: −log10 of the molar value. Bounds are passed on as bounds.

One assay relates to HCV 1a genotype replicon. Briefly: HCV replicon assay, qRT-PCR, genotype 1a (Huh-1a7 replicon cell line). Type of assay: cell-based, HCV (strain H77. To be noted: Hepatitis C virus; Genotype-1a replicon, HCV RNA by qRT-PCR normalized to GAPDH RNA. From the text: (§1) HCV replicon cell lines (kindly provided by R. Bartenschlager) isolated from colonies as described by Lohman et al. (Lohman et al. (1999) Science 285: 110-113, expressly incorporated by reference in its entirety) and used for all experiments. One of the HCV replicon cell lines (strain Conl, genotype 1b) has the nucleic acid sequence set forth in EMBL Accession No.: AJ242651, the coding sequence of which is from nucleotides 1801 to 8406. Another replicon cell line (strain H77, genotype 1a) was constructed as described by Yi et. al. (Yi et. al. (2004) Journal of Virology 78(15):7904-15). The coding sequences of the published HCV replicons were synthesized and subsequently assembled in plasmids using standard molecular biology techniques.
(§2) One replicon cell line (“SGR 11-7”) stably expresses HCV replicon RNA, genotype 1b, which consists of (i) the HCV 5′UTR fused to the first 12 amino acids of the capsid protein, (ii) the neomycin phosphotransferase gene (neo), (iii) the IRES from encephalomyocarditis virus (EMCV) and (iv) HCV […] to NS5B genes and the HCV 3′UTR. Another replicon cell line (“Huh-1a7”) described by Yi et. al. (Yi et. al. (2004) Journal of Virology 78(15):7904-15, expressly incorporated by reference in its entirety) stably expresses HCV replicon RNA, genotype 1a, which consists of (i) the HCV 5′UTR fused to the first 12 amino acids of the capsid protein, (ii) the HIV tat protein, (iii) the neomycin phosphotransferase gene (neo), (iv) the IRES from encephalomyocarditis virus (EMCV) and (vi) HCV NS3 to NS5B genes that harbor cell culture adaptive mutations (Q1067R, K1691R, S2204I) and the HCV 3′UTR.
(§3) These cell lines are maintained at 37° C., 5% CO2, 100% relative humidity in DMEM (Cat#11965-084, Invitrogen), with 10% fetal calf serum (“FCS”, Invitrogen), 1% non-essential amino acids (Invitrogen), 1% of Glutamax (Invitrogen), 1% of 100× penicillin/streptomycin (Cat#15140-122, Invitrogen) and Geneticin (Cat#10131-027, Invitrogen) at 0.75 mg/ml or 0.25 mg/ml for 11-7 and Huh-1a7 cells, respectively.
(§4) EC50 values of single agent compounds were determined by HCV RNA detection using quantitative RT-PCR, according to the manufacturer's instructions, with a TAQMAN® One-Step RT-PCR Master Mix Reagents Kit (Cat#AB 4309169, Applied Biosystems) on an ABI Model 7500 thermocycler. EC50 values of combinations are similarly determined by HCV RNA detection using quantitative RT-PCR. The TAQMAN primers to use for detecting and quantifying HCV RNA obtained from Integrated DNA Technologies. HCV RNA is normalized to GAPDH RNA levels in drug-treated cells, which is detected and quantified using the Human GAPDH Endogenous Control Mix (Applied Biosystems, AB 4310884E). Total cellular RNA is purified from 96-well plates using the RNAqueous 96 kit (Ambion, Cat#AM1812). Chemical agent cytotoxicity is evaluated using an MTS assay according to the manufacturer's directions (Promega).
(§5) The compounds of the present invention can be effective against the HCV 1a and 1b genotypes. It should also be understood that the compounds of the present invention can inhibit multiple genotypes of HCV. In one embodiment, compounds of the present invention are active against the 1a, 1b, 2a, 2b, 3a, 4a, and 5a genotypes. […] EC50 ranges against HCV 1a or 1b are as follows: A>1 μM; B 0.1-1 μM; C<0.1 μM.
In general terms: Replicon systems follow genome replication, usually without infectious particles.

A further assay has as its system HCV 1b genotype replicon. Briefly: HCV replicon assay, qRT-PCR, genotype 1b (SGR 11-7 replicon cell line). Type of assay: cell-based, HCV (strain Conl. To be noted: Hepatitis C virus; Genotype-1b replicon, HCV RNA by qRT-PCR normalized to GAPDH RNA.
From the text: as §1, §2, §3, §4, §5

As to `COC(=O)[C@H](C)NP(=O)(OC[C@H]1O[C@@H](n2ccc(=O)[nH]c2=O)[C@@](O)(C#CCl)C1O)Oc1cccc2ccccc12` (some centres unmarked) [Example 2], the pEC50 in the assay with HCV 1a genotype replicon and in the assay on HCV 1b genotype replicon was 6.00 to 7.00 in each case.
With `CC(C)OC(=O)[C@H](C)NP(=O)(OC[C@H]1O[C@@H](n2ccc(=O)[nH]c2=O)[C@@](O)(C#CCl)C1O)Oc1cccc2ccccc12` (some centres unmarked) [Example 8], the pEC50 (usually −log10 of the EC50, conventionally taken in molar units) in the assay on HCV 1a genotype replicon is 6.00 to 7.00; in the assay with HCV 1b genotype replicon, below 6.00.
As to `O=c1ccn([C@@H]2O[C@H](CO)C(O)C2(O)C#CCl)c(=O)[nH]1` (some centres unmarked) [Example 1], the pEC50 in the assay on HCV 1a genotype replicon and with HCV 1b genotype replicon was below 6.00 in each case.
As to `C[C@H](NP(=O)(OC[C@H]1O[C@@H](n2ccc(=O)[nH]c2=O)[C@@](O)(C#CCl)C1O)Oc1cccc2ccccc12)C(=O)OCc1ccccc1` (some centres unmarked) [Example 6], the pEC50 in the assay on HCV 1a genotype replicon and with HCV 1b genotype replicon was 6.00 to 7.00 each time.
In the case of `CCCCCOC(=O)[C@H](C)NP(=O)(OC[C@H]1O[C@@H](n2ccc(=O)[nH]c2=O)[C@@](O)(C#CCl)C1O)Oc1cccc2ccccc12` (some centres unmarked) [Example 7], the pEC50 in the assay with HCV 1a genotype replicon and with HCV 1b genotype replicon was 6.00 to 7.00 throughout.
With `C[C@H](NP(=O)(OC[C@H]1O[C@@H](n2ccc(=O)[nH]c2=O)[C@@](O)(C#CCl)C1O)Oc1cccc2ccccc12)C(=O)OC1CCCC1` (some centres unmarked) [Example 9], the pEC50 in the assay with HCV 1a genotype replicon and with HCV 1b genotype replicon was 6.00 to 7.00 each time.
Take `C[C@H](N[P@@](=O)(OC[C@H]1O[C@@H](n2ccc(=O)[nH]c2=O)[C@@](O)(C#CCl)C1O)Oc1cccc2ccccc12)C(=O)OCC(C)(C)C` (some centres unmarked) [Example 3]: the pEC50 in the assay on HCV 1a genotype replicon and in the assay on HCV 1b genotype replicon was 6.00 to 7.00 in each case.
Consider `C[C@H](N[P@](=O)(OC[C@H]1O[C@@H](n2ccc(=O)[nH]c2=O)[C@@](O)(C#CCl)C1O)Oc1cccc2ccccc12)C(=O)OCC(C)(C)C` (some centres unmarked) [Example 4], for which the pEC50 in the assay on HCV 1a genotype replicon and in the assay on HCV 1b genotype replicon was above 7.00 in each case.
Turning to `C[C@H](NP(=O)(OC[C@H]1O[C@@H](n2ccc(=O)[nH]c2=O)C(O)(C#CCl)C1O)Oc1cccc2ccccc12)C(=O)OC1CCCCC1` (some centres unmarked) [Example 10], the pEC50 with HCV 1a genotype replicon and in the assay with HCV 1b genotype replicon was below 6.00 in each case.
As to `CCCCOC(=O)[C@H](C)NP(=O)(OC[C@H]1O[C@@H](n2ccc(=O)[nH]c2=O)[C@@](O)(C#CCl)C1O)Oc1cccc2ccccc12` (some centres unmarked) [Example 5], the pEC50 with HCV 1a genotype replicon and in the assay with HCV 1b genotype replicon was 6.00 to 7.00 throughout.
